Here are results for one compound from patent US20110207694A1, “MAMMALIAN HYPOTHALAMIC NUTRIENT MODULATION OF GLUCOSE METABOLISM” (priority 2005, published 2011).

Each structure is given as a SMILES string.

For one data set, the system named is conscious rats. Kind of data set: ICV glucose or lactate infusion with pancreatic basal insulin clamp: plasma glucose and liver glucose production. Type of data set: in vivo, rat. The source says:
We hypothesize that the hypothalamic sensing of glucose-derived pyruvate is a novel regulator of endogenous glucose production (GP). […] We propose that an increase in neuronal pyruvate levels is a hypothalamic signal of nutrient availability.
Long chain fatty acids in the brain decrease glucose production (GP) by the liver via activation of hypothalamus ATP-sensitive (KATP) channels. Here we tested whether (A) direct administration of glucose in the third cerebral ventricle can alter glucose production by the liver, and (B) whether this effect requires its metabolism in the TCA cycle.

A further data set concerns mediobasal hypothalamus. In words: Intrahypothalamic (IH) infusion of glucose or DCA with pancreatic basal insulin clamp. The data set is classed as in vivo, rat. As to conditions: IH administration. The source says:
FIG. 3 is a diagram of experimental protocols (Panel (a)) and graphs of results of those experiments utilizing intrahypothalamic (IH) infusions of glucose.
FIG. 4 is a schematic and graphs of experimental results showing the effect of dichloroacetate (DCA), an inhibitor of pyruvate dehydrogenase kinase, having the effect of activating pyruvate dehydrogenase (PDH). The schematic of Panel (a) illustrates the PDH activation effect of DCA in the context of glucose metabolism, the TCA cycle, and nervous system cells.
We have localized the effect of glucose on liver glucose production to the mediobasal hypothalamus. This was accomplished using bilateral intraparenchymal (rather than ICY) delivery of both glucose and the KATP blocker GLI.

The test system of a further data set is high fat-fed rats. Kind of data set: Central glucose or lactate in regular chow vs 3-day high fat diet-fed animals: glucose production. Type of data set: in vivo, rat. The note with it: central administration. The source says: The latter is an excellent model for diet-induced insulin resistance.
Another data set relates to rats. Kind of data set: Food intake after central (ICV) glucose or lactate. The data set is classed as in vivo, rat. The note with it: central administration.
Data set [1] has as its system male Sprague-Dawley rats. Kind of data set: ICV infusion: plasma triglycerides and metabolites under basal and pancreatic clamp conditions. Type of data set: in vivo, rat. The text has this:
Animal preparation. We studied 10-week-old male Sprague-Dawley rats. Rats underwent stereotaxic surgery to indwell single catheters in the third cerebral ventricle {intracerebroventricular (ICV)(Obici et al., 2001) or bilateral catheters into the mediobasal hypothalamus (Lam et al., 2005c). One week later, we placed indwelling catheters in the internal jugular vein and carotid artery for sampling and infusion during the in vivo experiments (Obici et al., 2001). Recovery from surgery was monitored by measuring daily food intake and weight gain for 4-5 days after surgery.
Infusion protocols. The in vivo infusion experiments lasted a total of 360 min, and the experiments were carried out in rats that had their food removed ˜5 h before the experiments. Thus, at the time of the experiment, the rats are in post-absorptive state since their stomach should be completely emptied by 5 h fasting. […] This ICV glucose protocol physiologically elevate hypothalamic glucose concentration by ˜70% as previously described (Lam et al., 2005b) and is similar to that induced by a doubling of the circulating glucose levels (Lam et al., 2005b). During the ICV infusions, we monitored the plasma metabolite levels under pre-infused (0 min), basal (180-240 min) and pancreatic clamp (300-360 min) conditions. […] A basal insulin-pancreatic clamp was performed in the final 2 h (240-360 min) of the study as previously described (Lam et al., 2005b). In brief, a continuous infusion of insulin (1 mU/kg.min) and somatostatin (3 μg/kg.min) was administered, and a variable infusion of a 25% glucose solution was started and periodically adjusted to clamp and maintain the plasma glucose concentration at ˜8 mM. […] To examine the time-dependent effects of ICY glucose on plasma triglycerides, ICY (5 μl/h) 2 mM D-glucose or mannitol was administrated for 210 min and plasma triglyceride levels were monitored at 0, 20, 60, 120, 180, 210 min. […] Plasma triglycerides were monitored under basal, pancreatic clamp and tyloxapol-treated conditions. At the end of the infusion experiments, rats were anesthetized and tissue samples were freeze-clamped in situ with aluminum tongs pre-cooled in liquid nitrogen. All tissue samples were stored at −80° C. for subsequent analysis.
Biochemical analyses. Plasma glucose concentrations were measured by the glucose oxidase method (Glucose Analyzer II, Beckman Instruments, Inc., Fullerton, Calif.). […] FFA concentrations were determined by an enzyme assay in accordance with the manufacturer's specifications (Waco Pure Chemical Industries. Osaka. Japan). Plasma insulin concentrations (with rat and porcine insulin standards) were measured by radioimmunoassay (RIA). Plasma adiponectin concentrations were measured by RIA (Linco Inc., Austin, Tex., USA). Liver triglycerides were measured as described (Muse et al., 2004).
Calculations. Statistical analysis was done by unpaired Student's t test or analysis of variance as appropriate. Data are presented as means±SEM. All values were collapsed into a single value for each animal prior to the calculation of mean. The time period 180-240 min was averaged for the basal and the time period 300-360 min was averaged for the clamp conditions.

The subject of data set [2] is phospho-ACC, ACC, FAS, MTP and ApoB. Kind of data set: Western blot of liver proteins after ICV glucose. Type of data set: in vivo, rat. As for the experimental part:
Western blot analyses. Liver tissue (50-100 mg) was homogenized in a detergent-based lysis buffer (M-PER, Pierce) supplemented with protease and phosphatase inhibitors. The extracts were incubated on ice for 20 min and then centrifuged at 15,000×g to remove tissue debris; the supernatants were saved and frozen at −80 C until analysis. Fifty μg of protein were heat-denatured in SDS-PAGE sample buffer and resolved on denaturing (SDS) 10% polyacrylamide gels (SDS-PAGE). Fractionated proteins were electrophoretically transferred to nitrocellulose membranes by standard procedures. Membranes were immunoblotted with the appropriate primary antibodies and immune complexes were detected by enhanced chemiluminescence (ECL) (Western Lightning, Perkin Elmer Life Sciences) using horseradish peroxidase conjugated secondary antibodies. Bands were imaged on X-ray film and digitized for quantification using ImageQuant software (Molecular Dynamics). β-tubulin was used for loading normalization. Antibodies. Rabbit antibodies to acetyl Co-A carboxylase and phospho-acetyl Co-A carboxylase (Ser79) were from Cell Signaling Technology (Beverly, Mass.); fatty acid synthetase (FAS) and microsomal triglyceride transfer protein (MTP) antibodies were from BD Biosciences Pharmingen (San Jose, Calif.); cholesterol hydroxylase 7α (CYP7A1) and ApoB-100 antibodies were from Santa Cruz Biotechnology (Santa Cruz, Calif.); mouse monoclonal β-tubulin antibodies were obtained from Covance Research Products (Berkeley, Calif.).

Data set [3] deals with male Sprague-Dawley rats. The note with it: ICV 2 mM glucose, 5 μl/h (Lam et al., 2005b); cited from earlier work.
Where [4] appears, read: central administration of glucose.

Consider `O=C[C@H](O)[C@@H](O)[C@H](O)[C@H](O)CO` [glucose, D-glucose], for which the circulating glucose levels entry in the data set with conscious rats (central (ICV) administration) is given as “lowered circulating glucose levels”. For the same compound, in the data set with conscious rats (central administration), the gluconeogenesis and glycogenolysis result is “inhibited gluconeogenesis and glycogenolysis”; the “liver glucose production, G6Pase flux and mRNA” value is “reduced liver glucose production, G6Pase flux and mRNA”. In addition, the plasma glucose concentrations in the data set on conscious rats (four hour ICV infusion 5 μl/h (glucose 2 mM, lactate 5 mM), control 150±4) came to 133 ± 5 mg/dL. Moreover, the “exogenous glucose infusion rate required to maintain euglycemia” value in the data set with conscious rats (pancreatic basal insulin clamps, central administration) is “increased exogenous glucose infusion rate”. In the data set with conscious rats (pancreatic clamps, plasma glucose and insulin at basal, ICV infusion, control 10.4±0.1 (glucose), 11.7±0.6 (lactate)), the “GP (glucose production)” value came to 7.4 ± 0.3 mg/kg/min. The circulating glucose levels result in the data set with mediobasal hypothalamus was “lowered circulating glucose levels”. Also, in the data set on mediobasal hypothalamus (clamp), the glucose production entry was “suppressed liver glucose production” and the glucose utilization entry was “unchanged”. Besides, the “exogenous glucose infusion rate to maintain euglycemia” value in the data set with mediobasal hypothalamus (pancreatic basal insulin clamps) is listed as “increased exogenous glucose infusion rate”. The glucose production entry in the data set with high fat-fed rats (3-day high fat diet-fed animals) was “severely impaired”. Besides, the glucose production result in the data set with high fat-fed rats (regular chow animals) is reported as “lowered glucose production”. Further, the food intake overnight result with rats is “inhibits food intake overnight”. Further, the “decrease in plasma triglyceride levels” value with male Sprague-Dawley rats [1] (ICV glucose, within 2 h, fraction) is on record as “⅓”. For the same compound, the “maximal hypolipidemic effect (decrease in plasma triglycerides)” value in the data set on male Sprague-Dawley rats [1] (ICV glucose, within 3 h) is reported as around 75%. Besides, in the data set on male Sprague-Dawley rats [1] (ICV infusion), the “plasma free fatty acids levels” value was “did not modify plasma fatty acids levels”. In the data set on male Sprague-Dawley rats [1] (ICV infusion (glucose 2 mM, L-lactate 5 mM)), the plasma triglyceride levels entry is “markedly decreased the circulating levels of triglycerides”. Also, the “hepatic content of lipogenic enzymes acetyl-CoA carboxylase and fatty acid synthase” value in data set [2] (ICV glucose) is on record as “failed to alter the hepatic content of these lipogenic enzymes”. Besides, in data set [2] (setting [4]), the “expression of MTP in the liver” value is on record as “not affected” and the “hepatic ApoB48 levels” value is “not decreased”. For the same compound, the “rise in hypothalamic glucose levels” value in the data set with male Sprague-Dawley rats [3] was around 70%.
